Key:
[1] = test system: immune cell populations in the spleen and PBMC; experiment: Delivery efficiency of eGFP mRNA LNP to immune cell populations in spleen and peripheral blood (flow cytometry); assay type: in vivo; settings: eGFP mRNA encapsulating LNP, intravenous, C57BL/6 mice, 12 hours, flow cytometry (FIG. 6 to 7)
Protocol: C57BL/6 mice (3 mice per group) were intravenously injected with eGFP mRNA encapsulating LNP. After 12 hours, the mice were dissected, and the spleen and peripheral blood, were collected to prepare single-cell suspensions of various tissues and organs. After blocking with Fc blocking antibodies and surface staining with fluorescent-labeled antibodies, flow cytometry was conducted to analyze the expression levels of eGFP in various immune cell populations to confirm the delivery efficiency of lipid nanoparticles comprising different amino lipid compounds to immune cell populations in different tissues and organs.
“Blank” in FIG. 6 and FIG. 7 refers to the control group injected with 100 μL Tris buffer.

[2] = test system: BALB/c mice; experiment: In vivo delivery of Fluc mRNA-encapsulating LNP formulations, luciferase signal by In Vivo Imaging System (IVIS); settings: tail vein injection (IV) 70 μL, female BALB/c mice, 6 hours after injection; for Average number of photons (Total in-vivo flux): LNP formulation encapsulating Fluc mRNA (Lipid:DSPC:CHO-HP:M-DMG-2000 48:10:40.5:1.5); for Average number of photons (Liver) / Average number of photons (Spleen): LNP formulation encapsulating Fluc mRNA
Protocol: Animal preparation: Female BALB/c mice of 6-8 weeks old were selected and raised in an SPF grade breeding room. Animal testing was conducted in strict accordance with the guidelines of national health institutions and animal ethics requirements.
In vivo Delivery: prior to injection of the test LNP formulation, the LNP formulation was gently and repeatedly inverted to thoroughly mix the sample of the formulation. A corresponding amount of the LNP formulation was aspirated with a 1 ml insulin syringe, and the LNP formulation was injected by tail vein injection (IV), with 3 mice in duplicate per formulation. Each mouse was injected with 70 μL of the corresponding LNP formulation encapsulating the luciferase mRNA (Fluc mRNA) prepared in Experimental Example 1.
6 hours after injection of LNP formulations, mice were injected with 200 μL D-Luciferin luciferase developing substrate (Catalog No. 122799; Manufacturer: Perkin Elmer). After the substrate was injected, the mice were anesthetized with isoflurane inhalation, and the injection time of luciferase developing substrate was recorded.
The encapsulation efficiency of the lipid nanoparticle encapsulating luciferase mRNA (Fluc mRNA) with a representative amino lipid compound and the fluorescence expression intensity induced by the same are shown in Table 4, with the LNP formulation containing SM-102, 1001 or ALC-0315 as a control LNP formulation. The preparation method of the control LNP formulation was basically the same as that of the LNP formulations in Experimental Example 1, with the difference lying in that the amino lipid compounds of the present disclosure were replaced with SM-102, 1001 or ALC-0315 in the preparation of the control LNP formulation.

Structure (SMILES)	delivery efficiency to immune cell populations (eGFP expression) [1]	Average number of photons (Total in-vivo flux) [2]	Average number of photons (Liver) [2]	Average number of photons (Spleen) [2]
CCCCCCOC(CCCOC(=O)CCCCC(CCCCC(=O)OCCCC(OCCCCCC)OCCCCCC)OC(=O)OCCCN(CC)CC)OCCCCCC [compound 2042]	different delivery preferences to different immune cells	–	–	–
CCCCCCOC(CCCOC(=O)CCCCCC(CCCCCC(=O)OCCCC(OCCCCCC)OCCCCCC)OC(=O)OCCCN(CC)CC)OCCCCCC [compound 2045]	different delivery preferences to different immune cells	5.83E+07	8.90E+06	1.89E+06
CCCCCCOC(CCCOC(=O)CCCCCC(CCCCCC(=O)OCCCC(OCCCCCC)OCCCCCC)OC(=O)OCCCN(CC)CC)OCCCCCC [compound 2043]	different delivery preferences to different immune cells	1.64E+08	2.59E+07	1.07E+07
CCCCCCOC(CCCOC(=O)CCCCCCCCC(CCCCCCCCC(=O)OCCCC(OCCCCCC)OCCCCCC)OC(=O)OCCCN(C)C)OCCCCCC [compound 388]	different delivery preferences to different immune cells	1.94E+08	3.66E+07	1.34E+06
CCCCCCCCOCCCC(=O)N(CCCN(C)C)C(CCCCCCCCC(=O)OCCCC(OCCCCCC)OCCCCCC)CCCCCCCCC(=O)OCCCC(OCCCCCC)OCCCCCC [compound 449]	–	1.65E+08	2.94E+07	7.31E+06
CCCCC/C=C\C/C=C\CCCCCCCC(=O)OCC(COCCCCC(OCCCCCCCC)OCCCCCCCC)COC(=O)OCCCN(CC)CC (centres unmarked) [compound 1248]	–	8.20E+07	1.79E+07	3.48E+06
CCCCCCOC(CCCOC(=O)CCCCCCC(CCCCCCC(=O)OCCCC(OCCCCCC)OCCCCCC)OC(=O)OCCCN(C)C)OCCCCCC [compound 2040]	–	1.53E+08	2.97E+07	1.11E+07
CCCCCCOC(CCCOC(=O)CCCCCCCC(CCCCCCCC(=O)OCCCC(OCCCCCC)OCCCCCC)OC(=O)OCCCN(C)C)OCCCCCC [compound 2041]	different delivery preferences to different immune cells	2.08E+08	4.16E+07	1.07E+07
CCCCCCCCOC(CCCOC(=O)CCCCCCCCC(CCCCCCCCC(=O)OCCCC(OCCCCCCCC)OCCCCCCCC)OC(=O)OCCCN(CC)CC)OCCCCCCCC [compound 859]	–	2.31E+07	3.71E+06	7.21E+04
CCCCCCCCC(=O)OCCCCCCCCOC(=O)CCCCCCCCC(CCCCCCCCC(=O)OCCCC(OCCCCCC)OCCCCCC)OC(=O)OCCCN(CC)CC (centres unmarked) [compound 441]	–	3.09E+07	5.62E+06	5.52E+05
CCCCCCOC(CCCNC(=O)OCCCCCCCC(CCCCCCCCCOC(=O)NCC(OCCCCCC)OCCCCCC)OC(=O)OCCCN(CC)CC)OCCCCCC (centres unmarked) [compound 459]	–	3.42E+07	5.09E+06	2.52E+06
CCCCCCOC(CCCOC(=O)CCCCCCCCC(CCCCCCCCC(=O)OCCCCCCCC(=O)OCC)OC(=O)OCCCN(CC)CC)OCCCCCC (centres unmarked) [compound 436]	–	2.50E+07	6.68E+06	5.08E+05
CCCCCCCOC(CCCOC(=O)CCCCCCCCC(CCCCCCCCC(=O)OCCCC(OCCCCC)OCCCCC)OC(=O)OCCCN(C)C)OCCCCCCC (centres unmarked) [compound 851]	–	1.28E+08	2.21E+07	1.93E+06

From patent US20260035338A1, “AMINO LIPID COMPOUND AND LIPID NANOPARTICLE FOR DELIVERING BIOACTIVE INGREDIENT” (SHENZHEN SHENXIN BIOTECHNOLOGY CO., LTD., priority 2022, published 2026)
